Results: patent publication US11969505B2, “Method for freeze-drying cells in a hydrogel comprising nanofibrillar cellulose and freeze-dried cells in an aerogel comprising nanofibrillar cellulose” (UPM-KYMMENE CORPORATION, priority 2016, dated 2024)

Tested on: Hep G2 cells
Assay: Cellstain double staining (Live/Dead, calcein AM / propidium iodide) viability after freeze-drying and rehydration
Type: cell-based, human
Conditions: 24 h trehalose incubation, same lyoprotectants, liquid nitrogen freezing; with vs without GrowDex
Text: One method to evaluate the cell membrane integrity is enzyme activity assays combined with nuclei staining. Calcein AM (acetoxy methyl) ester and propidium iodide are suitable for viability assessment of different microbes. Calcein AM is itself a non-fluorescent and cell membrane permeable molecule, but undergoes an esterase reaction when in cytosol if correct enzymes are available and transforms into calcein, which is a fluorescent molecule. This way, the fluorescent cells can be visually observed with fluorescence microscopy or a plate reader.
Therefore, only necrotic cells are affected, whereas apoptotic and healthy cells not. Once in the cytosol, the PI binds to any available DNA and RNA, including the DNA in nucleus. When excited with 535 nm light, an emission of 617 nm can be observed on the areas of dead cells.
Three lyoprotectants were chosen for testing with GrowDex®. First, the cells were cultivated regularly for 4 days either in 2D or 3D with 0.8% (w/w) of GrowDex®, and then the medium was changed. […] Then, the systems were freeze-dried and rehydrated and evaluated for viability with Cellstain double staining and fluorescence microscopy. […]
Autofluorescence was ruled out by killed control samples that were stained and imaged at the same time showing no green fluorescence in identical settings. […]

In the case of `OC[C@H]1O[C@H](O[C@H]2O[C@H](CO)[C@@H](O)[C@H](O)[C@H]2O)[C@H](O)[C@@H](O)[C@@H]1O` [trehalose, α-D-glucopyranosyl-(1→1)-α-D-glucopyranoside], the “Live/dead dual staining outcome after freeze-drying and rehydration” value is reported as “the cells did not survive”.
